According to patent publication US20140017187A1, “Use of 5-(7-methoxy-3,3-dimethyl-2,3-dihydro-1-benzoxepin-5-yl)-3-methyl-penta-2,4-dienoic acid as a cosmetic” (Merck Patent GmbH, priority 2008, published 2014):
“And” between values parts separate entries of the source, which are not always exact repeats. Identical values can stand only once.

Assays:
PPARγ = PPARγ luciferase reporter gene activation in CV1 cells expressing endogenous PPARγ; assay type: cell-based, green monkey; conditions: for Fold Activation PPAR gamma, MEAN: mean of the two experiments in triplicate; for Fold Activation PPAR gamma: single values of triplicates, two experiments, relative to control
From the text: Analysis of the activation of PPARα and PPARγ is based on the transfection of a DNA allowing the expression of a reporter gene (the gene of luciferase) under the control of the PPARs, either endogenous in the case of PPARγ or cotransfected in the case of PPARα. The reporter plasmid J3TkLuc comprises three copies of the response element for PPARs of the human apo A-II gene (Staels, B et al. (1995), J. Clin. Invest., 95, 705-712) which are cloned upstream of the promoter of the thymidine kinase gene of the herpes simplex virus in the plasmid pGL3. This reporter gene was obtained by subcloning, in the plasmid pGL3, the plasmid J3TkCAT described above (Fajas, L et al. (1997), J. Biol. Chem., 272, 18779-18789). […] These cells were inoculated at a density of 20,000 cells per well (96-well plates) and transfected with 150 ng of reporter DNA complexed with a mixture of lipids. In the case of the SK-Hep1 cells, an expression vector for PPARα, described by Sher, T. et al. (1993), Biochemistry, 32, 5598-5604, is cotransfected. After 5 hours, the cells are washed twice and incubated for 36 hours in the presence of the test compound in a fresh culture medium comprising 10% foetal calf serum. At the end of incubation, the cells are lysed and the luciferase activity is measured.

animal models = test: Toxicity studies in animal models (in house data); conditions: in vivo
[1] = Mutagenicity studies (in house data)
[2] = Skin/eye irritation test (in house data)
[3] = system: epidermal differentiation proteins; test: In vitro expression of epidermal differentiation proteins; assay type: cell-based; conditions: own unpublished results
[4] = system: subjects of skin type 3 or 4; test: Double blind clinical trial of skin whitening activity on forearms, versus placebo formulation; assay type: in vivo, human; conditions: oil-in-water emulsion with 1.0% Compound vs placebo, forearm, twice a day, 4½ weeks
Method: Skin whitening activity was evaluated in a double blind clinical trial. As study medication a oil-in-water emulsion formulation containing 1.0% of the Compound, in comparison with the same formulation containing no active ingredient (placebo) was used.
The study was executed with subjects of skin type 3 or 4, aged from 18 to 50 years, whereby the active formulation was applied on one forearm twice a day and the placebo formulation on the other forearm for 4½ weeks. Assessment of whitening efficacy was performed on both forearms at day 0, 14 and 28 by visual assessment (examination of pigmentation differences), colorimetric measurements (using Chroma-Meter CR 300, Minolta resulting in L* values, expressing the changes in brightness, and ITA° values Individual Typology Angle expressing the melanin index) as well as digital photographs.

[5] = Phototoxic and photo-allergenic potential (in house data)

COc1ccc2c(c1)C(/C=C/C(C)=C/C(=O)O)=CC(C)(C)CO2 [Compound, 5-(7-methoxy-3,3-dimethyl-2,3-dihydro-1-benzoxepin-5-yl)-3-methyl-penta-2,4-dienoic acid]
Fold Activation PPAR gamma, MEAN (PPARγ; 0.3 μm): 0.9 fold | Fold Activation PPAR gamma, MEAN (PPARγ; 1 μm): 1.0 fold | Fold Activation PPAR gamma (PPARγ; 1 μm): 0.8 fold and 1.2 fold and 0.9 fold and 1.0 fold and 1.3 fold | Fold Activation PPAR gamma, MEAN (PPARγ; 3 μm): 1.5 fold | Fold Activation PPAR gamma (PPARγ; 3 μm): 1.2 fold and 1.6 fold and 1.3 fold and 2.1 fold | Fold Activation PPAR gamma, MEAN (PPARγ; 10 μm): 5.2 fold | Fold Activation PPAR gamma, MEAN (PPARγ; 30 μm): 14.4 fold | Fold Activation PPAR gamma, MEAN (PPARγ; 50 μm): 17.6 fold | Fold Activation PPAR gamma, MEAN (PPARγ; 100 μm): 15.2 fold | cell proliferation or apoptosis (animal models): no indication | genotoxicity [1]: not genotoxic | skin/eye irritation [2]: no skin/eye irritation | expression of epidermal differentiation proteins [3]: increased expression | skin whitening activity [4]: extraordinary skin whitening activity | phototoxicity [5]: no phototoxic
